Source: patent US20260216112A1, “ACETYLCYSTEINE-STABILIZED GOLD NANOCLUSTERS FOR ACUTE KIDNEY INJURY, AND PREPARATION METHOD AND APPLICATION THEREOF” (priority 2021, published 2026)

How the values were obtained:
[1] = hydroxyl radical antioxidant capacity (HORAC) kit; assay type: biochemical; details: concentration of 100 μg/mL; FIG. 4
[2] = superoxide anion removal, SOD assay kit; assay type: biochemical; details: concentration of 100 μg/mL; FIG. 5
Method: The efficiency of Au NCs-NAC in removing superoxide anions at different concentrations ([…]) was determined using the SOD assay kit (Sigma-Aldrich, USA). The test was conducted according to the instructions provided by the manufacture.

[3] = ABTS free radical cation discoloration method; assay type: biochemical; details: concentration of […] (so in the source); absorbance at 734 nm; FIG. 6
Method: The test for eliminating ABTS (2,2′-azino-bis(3-ethylbenzothiazoline-6-sulfonic acid)) free radicals by Au NCs-NAC.
The free radicals eliminating ability of Au NCs-NAC was tested using the ABTS free radical cation discoloration method. ABTS (7 mM) was dissolved in water, and 2.45 mM potassium persulfate was added to react for 12 hours to produce ABTS free radical cations (⋅ABTS+). Then, the absorbance values of the pure ⋅ABTS+solution (AB) and the mixed solution of different concentrations (12.5-100 μg/mL) of Au NCs-NAC and ⋅ABTS+ were measured at 734 nm. The formula for calculating ABTS eliminating efficiency is [(AB AP)/AB]*100. All measurements were performed in triplicate.

[4] = system: TNF-α; test: in vitro anti-inflammatory study, TNF-α ELISA; assay type: cell-based; details: LPS 400 ng/ml stimulation, RAW264.7 macrophage supernatant, FIG. 9
Text: (§1) Embodiment 3: Au NCs-NAC cytotoxicity and protection of kidney cells by eliminating various reactive oxygen species/reactive nitrogen species, and the standard MTT method was used to evaluate the effect of Au NCs-NAC on the survival rate of 293T renal embryonic cells. Furthermore, ELISA (enzyme-linked immunosorbent assay) kits for TNF-α and IL-6 are adopted to evaluate the levels of inflammatory factors in the cells.
(§2) For in vitro anti-inflammatory studies, both macrophages and 293T renal embryonic cells were seeded into 96-well plates. Then, 293T renal embryonic cells were treated with 400 ng/ml lipopolysaccharide (LPS) for 1 h. Then, the supernatant of 293T renal embryonic cell culture was transferred to a 96-well plate to culture RAW264.7 macrophages overnight. Finally, the TNF-α/IL-6 ELISA kit was used to detect the concentrations of TNF-α and IL-6 in the RAW264.7 macrophage supernatant.

[5] = system: IL-6; test: in vitro anti-inflammatory study, IL-6 ELISA; assay type: cell-based; details: LPS 400 ng/ml stimulation, RAW264.7 macrophage supernatant, FIG. 10
Text: as §1, §2

[6] = system: glycerol-induced acute renal failure mice; test: glycerol-induced acute renal failure mice, serum creatinine and blood urea nitrogen; assay type: in vivo; details: 4 mg/kg injected 2 hours after glycerol, serum at 24 hours, versus phosphate buffer
Method: All experimental operations were performed in accordance with the animal use and care system approved by the Clinical Center Animal Care and Use Committee. Female athymic mice (six weeks, 20-25 g) were injected with 8 mL/kg 50% glycerol solution intramuscularly into the hind legs to establish a mice model of acute renal failure. After 2 hours, the small molecule drug acetylcysteine or Au NCs-NAC was injected.
Mice were randomly divided into 5 groups: (1) healthy mice injected with phosphate buffer; (2) healthy mice injected with Au NCs-NAC; (3) glycerol-induced acute renal failure mice injected with phosphate buffer; (4) glycerol-induced acute renal failure mice injected with Au NCs-NAC; (5) glycerol-induced acute renal failure mice injected with acetylcysteine in the same dose of Au NCs-NAC. Healthy mice and mice with glycerol-induced acute renal failure were euthanized 24 hours later. The blood of the mice was centrifuged to obtain serum, and the creatinine and blood urea nitrogen contents were measured. The phosphate buffer used for injection was 100 μL, the injection dose of Au NCs-NAC was 4 mg/kg, and the injection dose of acetylcysteine was 4 mg/kg.

CC(=O)N[C@@H](CS)C(=O)O [acetylcysteine]
hydroxyl radicals eliminated [1]: 47.2%
superoxide anions eliminated [2]: 6%
⋅ABTS+ eliminated (ABTS eliminating efficiency) [3]: 68.9%
production of inflammatory factor TNF-α [4]: not able to achieve the same
production of inflammatory factor IL-6 [5]: not able to achieve the same
serum blood urea nitrogen level ([6]; FIG. 11): cannot effectively reduce
serum creatinine level ([6]; FIG. 12): cannot effectively reduce
